Experimental data: patent US9615577B2, “Herbicidally active cyclic dione compounds, or derivatives therefor, substituted by a phenyl which has an alkynyl-containing substituent” (Syngenta Limited, priority 2012, dated 2017)

Legend:
Assay type in all cases: in vivo
[1] = tested on: Abutilon theophasti Medik. (ABUTH); assay: Test 1A glasshouse assay for herbicidal activity, pre-emergence; details: 312 h, evaluated after 13 days, read-out: percentage phytotoxicity ABUTH
Procedure, shortened: (§1)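 Phytotoxicity was rated visually 13 days post-spray, 0 meaning no damage and 100 total damage. Spray solution: acetone/water 50:50 with 0.5% Tween 20, applied one day post-sowing for pre-emergence or after 8 days for post-emergence; plants kept at 24/16 °C, 14 h light, 65% humidity.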

[2] = tested on: Brachiaria plantaginea (BRAPL); assay: Test 1B glasshouse assay for herbicidal activity, pre-emergence; details: Urochloa plantaginea, 480 h, 20 DAA, read-out: percentage phytotoxicity BRAPL
Procedure, shortened: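 Percentage phytotoxicity (100% = total damage, 0% = none) was scored visually 15 days (post-emergence) or 20 days (pre-emergence) after spraying. Plants had been sprayed 1 day or about 12 days after sowing with compound formulated as IF50 and diluted in 0.2% v/v X-77, then grown at 24/18° C. day/night.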

[3] = tested on: Echinochloa crus-galli (ECHCG); assay: Biological Example 2 comparative herbicidal data, post-emergence glasshouse screen; details: 312 h, read-out: Post-emergence herbicidal activities (percentage phytotoxicity) ECHCG; for pest or weed control at 8 g/ha: 8 g/ha application rate; for pest or weed control at 30 g/ha: 30 g/ha application rate; for pest or weed control at 15.625 g/ha: 15.625 g/ha application rate; for pest or weed control at 62.5 g/ha: 62.5 g/ha application rate
Procedure, shortened: (§2)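 Plants grown 8 days in a glasshouse (24/16°C day/night, 14 h light, 65% humidity) were sprayed with compound in acetone/water (50:50) containing 0.5% Tween 20. They were kept under the same conditions and watered twice daily. Phytotoxicity was scored visually after 13 days (0 = no damage, 100 = total damage).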

[4] = tested on: Alopecurus myosuroides (ALOMY); assay: as above; details: 312 h, read-out: Post-emergence herbicidal activities (percentage phytotoxicity) ALOMY; for pest or weed control at 8 g/ha: 8 g/ha application rate; for pest or weed control at 30 g/ha: 30 g/ha application rate; for pest or weed control at 15.625 g/ha: 15.625 g/ha application rate; for pest or weed control at 62.5 g/ha: 62.5 g/ha application rate
Procedure, shortened: as §2

Setaria faberi (SETFA) = assay: as above; details: 312 h, read-out: Post-emergence herbicidal activities (percentage phytotoxicity) SETFA; for pest or weed control at 8 g/ha: 8 g/ha application rate; for pest or weed control at 30 g/ha: 30 g/ha application rate; for pest or weed control at 15.625 g/ha: 15.625 g/ha application rate; for pest or weed control at 62.5 g/ha: 62.5 g/ha application rate
Procedure, shortened: as §2

[5] = tested on: Abutilon theophasti Medik. (ABUTH); assay: as above; details: read-out: Post-emergence herbicidal activities (percentage phytotoxicity) ABUTH; for pest or weed control at 8 g/ha: 8 g/ha application rate; for pest or weed control at 30 g/ha: 30 g/ha application rate
[6] = tested on: Amarantus retroflexus (AMARE); assay: as above; details: Amaranthus retroflexus, read-out: Post-emergence herbicidal activities (percentage phytotoxicity) AMARE; for pest or weed control at 8 g/ha: 8 g/ha application rate; for pest or weed control at 30 g/ha: 30 g/ha application rate
[7] = tested on: Ipomoea hederacea (IPOHE); assay: Test 1A glasshouse assay for herbicidal activity, pre-emergence; details: 312 h, evaluated after 13 days, read-out: percentage phytotoxicity IPOHE
Procedure, shortened: as §1

Solanum nigrum (SOLNI) [8] = assay: as above; details: 312 h, evaluated after 13 days, read-out: percentage phytotoxicity SOLNI
Procedure, shortened: as §1

[9] = tested on: Ipomoea hederacea (IPOHE); assay: Test 1A glasshouse assay for herbicidal activity, post-emergence; details: 312 h, evaluated after 13 days, read-out: percentage phytotoxicity IPOHE
Procedure, shortened: as §1

Solanum nigrum (SOLNI) [10] = assay: as above; details: 312 h, evaluated after 13 days, read-out: percentage phytotoxicity SOLNI
Procedure, shortened: as §1

SMILES	pest or weed control at 250 g/ha [1] [%]	pest or weed control at 8 g/ha [3] [%]	pest or weed control at 30 g/ha [3] [%]	pest or weed control at 8 g/ha [4] [%]	pest or weed control at 30 g/ha [4] [%]	pest or weed control at 8 g/ha (Setaria faberi (SETFA)) [%]	pest or weed control at 30 g/ha (Setaria faberi (SETFA)) [%]	pest or weed control at 8 g/ha [5] [%]	pest or weed control at 30 g/ha [5] [%]	pest or weed control at 8 g/ha [6] [%]	pest or weed control at 30 g/ha [6] [%]	pest or weed control at 250 g/ha [7] [%]	pest or weed control at 250 g/ha (Solanum nigrum (SOLNI) [8]) [%]	pest or weed control at 250 g/ha [9] [%]	pest or weed control at 250 g/ha (Solanum nigrum (SOLNI) [10]) [%]	further results
CC#Cc1cc(C)c(C2C(=O)C3CCC(C3)C2=O)c(C)c1 (stereo not drawn) [Compound A-5]	0	80	100	50	80	30	70	0	0	0	10	–	–	–	–	pest or weed control at 500 g/ha [2]: 100%
CC#Cc1cc(C)c(C2=C(OC(C)=O)CC(c3ccccn3)CC2=O)c(C)c1 (stereo not drawn) [Compound A-15]	50	–	–	–	–	–	–	–	–	–	–	–	–	–	–	pest or weed control at 125 g/ha [2]: 90%
CC#Cc1cc(Cl)c(C2C(=O)C3CCC(C3)C2=O)c(OCC)c1 (stereo not drawn) [Compound A-16]	70	–	–	–	–	–	–	–	–	–	–	–	–	–	–	–
CC#Cc1cc(Cl)c(C2C(=O)CC3(CCOCC3)CC2=O)c(OC)c1 [Compound A-20, 9-(2-Chloro-6-methoxy-4-prop-1-ynyl-phenyl)-3-oxa-spiro[5.5]undecane-8,10-dione]	80	100	100	90	100	90	100	50	80	10	80	–	–	–	–	–
CC#Cc1cc(C)c(C2C(=O)CC(CC3CCOCC3)CC2=O)c(C)c1 (stereo not drawn) [Compound A-9]	–	–	–	–	–	–	–	–	–	–	–	20	70	50	80	pest or weed control at 15.625 g/ha [3]: 100%; pest or weed control at 62.5 g/ha [3]: 100%; pest or weed control at 15.625 g/ha [4]: 80%; pest or weed control at 62.5 g/ha [4]: 90%; pest or weed control at 15.625 g/ha (Setaria faberi (SETFA)): 80%; pest or weed control at 62.5 g/ha (Setaria faberi (SETFA)): 90%
Cc1cc(C#CCl)cc(C)c1C1C(=O)C2CCC(C2)C1=O (stereo not drawn) [Compound A-6]	–	–	–	–	–	–	–	–	–	–	–	10	20	20	20	pest or weed control at 125 g/ha [2]: 80%; pest or weed control at 15.625 g/ha [3]: 90%; pest or weed control at 62.5 g/ha [3]: 100%; pest or weed control at 15.625 g/ha [4]: 70%; pest or weed control at 62.5 g/ha [4]: 70%; pest or weed control at 15.625 g/ha (Setaria faberi (SETFA)): 90%; pest or weed control at 62.5 g/ha (Setaria faberi (SETFA)): 90%; pest or weed control at 62.5 g/ha ([9]; 62.5 g/ha): 30%; pest or weed control at 62.5 g/ha (Solanum nigrum (SOLNI) [10]; 62.5 g/ha): 20%
CC#Cc1ccc(C2C(=O)C3CCC(C3)C2=O)c(C)c1 (single isomer, unassigned) [Compound A-2]	–	–	–	–	–	–	–	–	–	–	–	10	0	30	20	pest or weed control at 500 g/ha [2]: 100%
Cc1cc(C#CCl)cc(C)c1C1C(=O)CC(CC2CCOCC2)CC1=O (stereo not drawn) [Compound A-8]	–	–	–	–	–	–	–	–	–	–	–	30	70	70	80	pest or weed control at 15.625 g/ha [3]: 90%; pest or weed control at 62.5 g/ha [3]: 100%; pest or weed control at 15.625 g/ha [4]: 70%; pest or weed control at 62.5 g/ha [4]: 80%; pest or weed control at 15.625 g/ha (Setaria faberi (SETFA)): 80%; pest or weed control at 62.5 g/ha (Setaria faberi (SETFA)): 90%
CC#Cc1cc(C)c(C2=C(OC(=O)OC)CC(c3ccccn3)CC2=O)c(C)c1 (stereo not drawn) [Compound A-14]	70	–	–	–	–	–	–	–	–	–	–	–	–	–	–	pest or weed control at 250 g/ha [2]: 90%
CC#Cc1cc(C)c(C2C(=O)C3CCC(C3)C2=O)c(OC)c1 (stereo not drawn) [Compound A-10]	0	–	–	–	–	–	–	–	–	–	–	–	–	–	–	pest or weed control at 125 g/ha [2]: 80%
CC#Cc1cc(Cl)c(C2C(=O)C3CCC(C3)C2=O)c(OC)c1 (stereo not drawn) [Compound A-12]	0	90	100	40	90	50	90	10	40	0	0	–	–	–	–	pest or weed control at 62.5 g/ha ([1]; 62.5 g/ha): 0%; pest or weed control at 250 g/ha [2]: 100%
CC#Cc1cc(C)c(C2C(=O)CC(CCSC)CC2=O)c(C)c1 (stereo not drawn) [Compound A-21, 2-(2,6-Dimethyl-4-prop-1-ynyl-phenyl)-5-(2-methylsulfanyl-ethyl)cyclohexane-1,3-dione]	10	80	80	50	50	50	70	70	10	30	80	–	–	–	–	–
CC#Cc1ccc(C2C(=O)C(C)(C)OC(C)(C)C2=O)c(C)c1 [Compound A-1]	–	–	–	–	–	–	–	–	–	–	–	0	0	90	30	pest or weed control at 500 g/ha [2]: 90%; pest or weed control at 15.625 g/ha [3]: 20%; pest or weed control at 62.5 g/ha [3]: 90%; pest or weed control at 15.625 g/ha [4]: 10%; pest or weed control at 62.5 g/ha [4]: 80%; pest or weed control at 15.625 g/ha (Setaria faberi (SETFA)): 20%; pest or weed control at 62.5 g/ha (Setaria faberi (SETFA)): 40%
CC#Cc1cc(Cl)c(C2C(=O)C3CCC(C)(C2=O)C3(C)C)c(OC)c1 (stereo not drawn) [Compound A-17]	70	–	–	–	–	–	–	–	–	–	–	–	–	–	–	–
CC#Cc1cc(C)c(C2C(=O)CC(c3ccccn3)CC2=O)c(C)c1 (stereo not drawn) [Compound A-13]	70	80	80	60	70	80	90	0	40	0	30	–	–	–	–	pest or weed control at 30 g/ha ([1]; 30 g/ha): 30%; pest or weed control at 250 g/ha [2]: 90%
